Here are results for 1 compound from US6903134B2, “Formulation comprising benzofuranone derivatives for protection against oxidative stress” (Merck Patent GmbH, priority 2000, dated 2005).

Data set [1] in a line: 2,2-diphenyl-1-picrylhydrazyl (DPPH) assay, free-radical scavenging. It is filed as biochemical. The note with it: for free-radical scavenger / antioxidant properties compared with tocopherol (vitamin E): DPPH assay, same experimental set-up; for Absorbance in %, based on absorbance without THBC: 515 nm, 25° C., 1 cm, constant absorbance. An excerpt: The performance of the DPPH assay is described in Brand-Williams, W., Cuvelier, M. E. & Berset, C. […] Gamez, E. J. et al. “Antioxidant flavonoid glycosides from Daphniphyllum calycinum”; J. Nat. Prod.
2,2-Diphenyl-1-picrylhydrazyl is a free radical which is stable in solution. The unpaired electron results in a strong absorption band at 515 nm, and the solution has a dark violet colour. In the presence of a free-radical scavenger, the electron is paired, the absorption disappears, and the decoloration proceeds stoichiometrically taking into account the electrons taken up. The absorbance is measured in a photometer. The anti-free-radical property of the substance to be tested is determined by measuring the concentration at which 50% of the 2,2-diphenyl-1-picrylhydrazyl employed has reacted with the free-radical scavenger. This concentration is expressed as EC50, a value which can be considered to be a property of the substance under the given measurement conditions. The substance investigated is compared with a standard (for example tocopherol).
In addition, the slope of the straight lines in the linear region is determined and the EC50 calculated.
A 70 μM stock solution of 2,2-diphenyl-1-picrylhydrazyl (DPPH) in ethanol was prepared. Such amounts of 4,6,3′,4′-tetrahydroxybenzylcoumaranone (THBC) were added to aliquots of this solution so as to give the THBC/DPPH ratios indicated in Table 1. The absorbance was in each case measured at 515 nm, 25° C. and 1 cm, with Table 1 in each case indicating the value measured at constant absorbance. The values are plotted graphically against one another in FIG. 1, with the molar ratio being plotted on the x axis and the measured absorbance as a relative proportion of the absorbance measured for the stock solution (100%) being plotted on the y axis.

A short description of data set [2]: Stabilisation of dibenzoylmethane UV filters against decomposition by UV light. Type of data set: physicochemical. Conditions: no method or figures given. An excerpt:
The invention furthermore relates to the stabilisation of UV filters. A known and effective class of light-protection filter substances is formed by dibenzoylmethane derivatives. However, it is disadvantageous that these substances are very easily decomposed by UV light, and their protective properties are thus lost. An example of a light-protection filter from this class of compounds which is available on the market is 4-(tert-butyl)-4′-methoxydibenzoylmethane, which has the following structure: [drawing 18]

SMILES strings stand for the structures.

On to `O=C1c2c(O)cc(O)cc2OC1Cc1ccc(O)c(O)c1` (centres unmarked) [THBC, 4,6,3′,4′-tetrahydroxybenzylcoumaranone], for which the entries for the “free-radical scavenger / antioxidant properties compared with tocopherol (vitamin E)” value in data set [1] and in data set [1] (listed as 4,6,3′,4′-Tetrahydroxycoumaranone) were “better free-radical scavenger properties than tocopherol” and “more potent antioxidant than tocopherol”, respectively. Besides, the “Absorbance in %, based on absorbance without THBC” value turned out to be 97.66% in data set [1] (THBC/DPPH 0.01); 94.04% in data set [1] (THBC/DPPH 0.02); 87.02% in data set [1] (THBC/DPPH 0.05); 79.15% in data set [1] (THBC/DPPH 0.07); 72.13% in data set [1] (THBC/DPPH 0.10); 62.72% in data set [1] (THBC/DPPH 0.12). The “Absorbance in %, based on absorbance without THBC” value in data set [1] (THBC/DPPH 0.18) worked out at 44.18%; in data set [1] (THBC/DPPH 0.24), 26.08%; in data set [1] (THBC/DPPH 0.30), 16.16%; in data set [1] (THBC/DPPH 0.37), 15.73%; in data set [1] (THBC/DPPH 0.43), 15.27%; in data set [1] (THBC/DPPH 0.49) it was 15.27%. In addition, the “Absorbance in %, based on absorbance without THBC” value in data set [1] (THBC/DPPH 0.55) is on record as 15.27%; in data set [1] (THBC/DPPH 0.61) it was 15.05%; in data set [1] (THBC/DPPH 0.73), 14.19%; in data set [1] (THBC/DPPH 0.97), 14.56%; in data set [1] (THBC/DPPH 1.21), 14.56%. For the same compound, the “stabilisation action for dibenzoylmethanes” value in data set [2] is recorded as “particularly high stabilisation action”.
